Source: publication PMC9131871, “Impact of Micropolymorphism Outside the Peptide Binding Groove in the Clinically Relevant Allele HLA-C*14 on T Cell Responses in HIV-1 Infection” (Journal of Virology, 2022)

Target: HLA-C*14:03 (Homo sapiens, UniProt P10321, A176E/A330V/A35S/A97T/C350S/D114A/D33S/L171W/L180R/L218V/M285V/M309V/M331V/P208H/Q277E/Q291P/R121W/R243W/R45H/S123F/S297R/S48A/T329A/T363A/V319A)
Experiment: LC-MS/MS identification of HLA-bound HIV-1 peptides from NL4-3-infected .221-C1403 cells
Format: binding
Design: key: ●: Closed circles indicate the peptide which was identified in HLA-C*1402 or/and -C*1403 expressing cells
Details: HIV-1 NL4-3-infected .221-C1403 cells, W6/32 immunoprecipitation, two independent replicate experiments
Method: 721.221 cells expressing CD4 and HLA-C*14:02 (.221-C1402) or HLA-C*14:03 (.221-C1403) were infected with the laboratory-adapted NL4-3 HIV-1 strain. HLA-peptide complexes were isolated from cell lysates by immunoprecipitation with the anti-HLA class I antibody W6/32; then, peptides were eluted, fractionated by high-performance liquid chromatography (HPLC), and finally analyzed by LC-MS/MS. Two independent replicate experiments were performed, in which a total of 7,970 and 8,447 unique 8- to 13-mer peptide sequences were identified from .221-C1402 and .221-C1403 cells, respectively (Fig. 1A). Of these peptides, 6,163 were identified in both the C*14:02- and C*14:03-bound peptide data sets, while other peptides were detected in the acid-eluted fraction from only a single allele. […] These motifs are consistent with the HLA-C*1402/03 peptide motifs previously estimated using reported epitopes ([29]).
.221-C1402 and .221-C1403 cells were infected with HIV-1 NL4-3 in a low volume of RPMI 1640 medium (Thermo Fisher) containing 10% fetal bovine serum (FBS), 2 mM L-glutamine, 100 U/mL penicillin, 100 μg/mL streptomycin, and 10 mM HEPES (R10). Fifty microliters of NL4-3 stock virus (Reverse transcriptase activity (RT) value = 4 × 10^2 ng/mL) was added to 8 × 10^6 .221-C1402 cells or .221-C1403, and the cells were then incubated for 1.5 h at 37°C, after which 20 mL of R10 was added and the cells were cultured overnight. At day 1 postinfection, a further 20 mL R10 was added, and cells were split (1:2) on day 2. On day 3 postinfection, the proportion of cells infected with HIV-1 was determined by intracellular p24 staining, as previously described ([46]). Infected flasks were then harvested for immunoprecipitation of HLA-peptide complexes.
.221-C1402 cells or .221-C1403 cells infected with NL4-3 (1.5 × 10^8 to 2 × 10^8 cells) were harvested, washed in phosphate-buffered saline (PBS), and lysed in 5 mL of lysis buffer (1% IGEPAL 630, 300 mM NaCl, 100 mM Tris [pH 8.0], plus protease inhibitors) at 4°C for 45 min. Two centrifugation steps (2,000 × g for 10 min followed by 20,000 × g for 30 min at 4°C) were next employed to clear the lysates of cell debris prior to overnight capture of HLA-peptide complexes on W6/32-coated protein A‐Sepharose beads. W6/32-bound HLA-peptide complexes were sequentially washed with 10 to 20 mL of wash buffer 1 (0.005% IGEPAL, 50 mM Tris [pH 8.0], 150 mM NaCl, 5 mM EDTA), wash buffer 2 (50 mM Tris [pH 8.0], 150 mM NaCl), wash buffer 3 (50 mM Tris [pH 8.0], 400 mM NaCl), and finally wash buffer 4 (50 mM Tris [pH 8.0]) under gravity flow in Econo-Column glass chromatography columns (Bio-Rad). Peptide-HLA complexes were eluted from the beads with 5 mL of 10% acetic acid and, after drying under vacuum, were loaded onto a 4.6- by 50-mm ProSwift RP-1S column (Thermo Fisher Scientific) and eluted from an Ultimate 3000 HPLC system (Thermo Scientific) using a 500-μL/min flow rate over 10 min from 2% to 34% buffer B (0.1% trifluoroacetic acid [TFA] in acetonitrile) in buffer A (0.1% TFA in water). Alternate fractions were pooled to give two final peptide fractions that were dried for LC-MS/MS analysis.
Each HPLC-eluted sample was resuspended in 20 μL loading buffer, and 9 μL of it was injected onto a 3-μm-particle-size 0.075-mm by 150-mm Acclaim PepMap RSLC C18 column and further loaded onto a 2-μm-particle-size, 75-μm by 50-cm Acclaim PepMap RSLC C18 column using an Ultimate 3000 nUPLC system (Thermo Scientific). A linear gradient of 3 to 25% buffer B (0.1% formic acid, 5% dimethyl sulfoxide [DMSO] in acetonitrile) in buffer A (0.1% formic acid, 5% DMSO in water) was applied over 1 h to elute peptides from the column (flow rate of […]). Peptides were introduced, using an Easy-Spray source at 2,000 V at 40°C, into a Fusion Lumos mass spectrometer (Thermo Scientific). The ion transfer tube temperature was set to 305°C. […]

Sequence | C1403: peptide identified by LC-MS/MS in HLA-I eluate
AFHHVAREL [Nef AL9] | ●
ASGYIEAEV [Pol AV9, HIV-1 NL4-3 Pol 795–803 peptide …] | ●
FFREDLAF [Pol FF8, HIV-1 NL4-3 Pol 1–8 peptide FFREDLAF] | ●
FLGAAGSTM [Env FM9, HIV-1 NL4-3 Env 522–530 peptide …] | ●
FMTKALGI [Tat FI8, HIV-1 NL4-3 Tat 38–45 peptide FMTKALGI] | ●
IYHTQGYF [Nef IF8] | ●
KYHSNWRAM [Pol KM9] | ●
LYNTIAVLY [Gag LY9] | ●
RFDSRLAF [Nef RF8, HIV-1 NL4-3 Nef 184–191 peptide RFDSRLAF] | ●
VYYDPSKDL [Pol VYL9, HIV-1 NL4-3 Pol 472–480 peptide …] | ●
YFPDWQNYT [Nef YT9] | ●
